# Results as given in article PMC5387044, “Analogs of the Frog-skin Antimicrobial Peptide Temporin 1Tb Exhibit a Wider Spectrum of Activity and a Stronger Antibiofilm Potential as Compared to the Parental Peptide” (Frontiers in Chemistry, 2017).
# Marks after values point to notes of the source that are not given here. No end group written: not given here.
# How the values were obtained:
# S. aureus ATCC 33591 [1] = type: cell-based, Staphylococcus aureus; conditions: pH 7.4
# P. aeruginosa ATCC 27853 [2] = conditions: ATCC 27853, 24 h, pH 7.4
# [3] = tested on: S. epidermidis ATCC 35984; conditions: ATCC 35984, 24 h, pH 7.4
# [4] = tested on: human red blood cells (RBCs); conditions: concentrations up to 96 μM, 1 h, 37°C
# Procedure: Hemolytic activity of TB and its analogs was tested against human red blood cells (RBCs) as previously described (Tavanti et al., [2011]). Briefly, peripheral blood obtained from healthy donors was centrifuged (1,000 × g for 10 min, 4°C) and washed three times with PBS (Euroclone, Milan, Italy). A suspension of RBCs (4%, v/v) was mixed with various concentrations of the peptides (from 12 to 96 μM) into a round-bottom polystyrene 96-well microplate (Corning Costar). RBCs suspended in PBS alone were used as negative control (0% hemolysis), while cells lysed with 0.1% Triton X-100 were taken as positive control (100% hemolysis). The microplate was incubated for 1 h at 37°C and then centrifuged at 1,000 × g for 20 min, 4°C. Supernatants were transferred to a new plate and the optical density at 450 nm (OD450) was measured by means of a microplate reader. The hemolytic activity was quantified according to the following formula: hemolysis (%) = [(OD peptide – OD negative control)/(OD positive control – OD negative control)] × 100.
# The hemolytic activity was evaluated by the spectrophotometric determination of hemoglobin released from erythrocytes. PBS (0% hemolysis) and Triton X-100 (100% hemolysis) were used as controls. Hemolysis values ≤ 10% (dashed line) are considered to be non-hemolytic (Amin and Dannenfelser, [2006]). […]
# in vitro [5] = conditions: human
# [6] = tested on: K. pneumoniae ATCC BAA-1706; conditions: ATCC BAA-1706, 24 h, pH 7.4
# [7] = tested on: preformed biofilms of S. aureus ATCC 33591; test: Biofilm treatment assay on preformed (24-h old) biofilms, CFU counting, alone and with EDTA; type: cell-based, Staphylococcus aureus; conditions: concentrations up to 120 μM, CFU counting
# Procedure: The activity of TB, TB_L1FK, and TB_KKG6A against preformed (24-h old) biofilms of S. aureus and P. aeruginosa was also investigated. Briefly, biofilms were allowed to form for 24 h in flat-bottom 96-well microplates in the absence of antimicrobial compounds. Established biofilms were then washed three times with PBS in order to remove non-adherent cells and incubated in fresh BPM with different concentrations of the three peptides (from 15 to 120 μM). After 24 h of incubation, the viability of biofilm-associated cells was evaluated by CFU counting. For this purpose, biofilms were washed three times with PBS and bacterial cells were detached from the surface of the wells with a pipette tip, vigorously vortexed and plated in serial dilutions on TSA.
# TB_L1FK and TB_KKG6A were combined with EDTA in order to enhance their activity against preformed biofilms of S. aureus and P. aeruginosa. […] Following incubation, the antibiofilm effect was evaluated in terms of number of biofilm-associated viable cells as previously described.
# Figure 4 Activity of TB_L1FK and TB_KKG6A, used alone and in combination with EDTA, against preformed (24-h old) biofilms of S. aureus ATCC 33591 (A,B) and P. aeruginosa ATCC 27853 (C,D). The antibiofilm activity of the peptides, EDTA and the peptide-EDTA combinations was evaluated by CFU counting after 24 h of incubation. […]
# [8] = tested on: P. aeruginosa ATCC 27853 biofilm formation
# P. aeruginosa ATCC 27853 [9] = type: cell-based, Pseudomonas aeruginosa; conditions: pH 7.4
# S. aureus ATCC 33591 [10] = conditions: ATCC 33591, 24 h, pH 7.4
# in vitro [11] = conditions: human; remark: listed apart in the source
substance,measurement,setting,value
"LLPIVGNLLKSLL-NH2 [TB, Temporin 1Tb]",Time to bactericidal effect (reduction of at least 3 Log10 in viable bacteria),S. aureus ATCC 33591 [1],approximately 90 min
same,MBC,P. aeruginosa ATCC 27853 [2],48 µM
same,MBC,[3],6 µM
same,Hemolytic effect,[4],no hemolytic effect
same,viability,in vitro [5],~90%
same,MBC,[6],48 µM
same,Antibiofilm activity on preformed biofilms,[7],did not exert a considerable antibiofilm activity
same,Inhibitory activity on forming biofilms,[8],no inhibitory activity
same,Time to bactericidal effect,P. aeruginosa ATCC 27853 [9],15 min
same,MBC,S. aureus ATCC 33591 [10],12^a μM
same,viability,in vitro [11],~90%
